Molecules are shown by their SMILES. Some results are limits rather than exact numbers.

The results in this text go back to patent US20230414826A1, “FIBRIN HYDROGELS” (Mayo Foundation for Medical Education and Research, priority 2020, published 2023).

This test deals with T1, fibrinogen (Evicel) (Homo sapiens, UniProt P02671+P02675+P02679).
T1 construct: purchased Ethicon (Evicel Biologically Active Component 2)
T1 sequence (P02671 20-629 limits assumed): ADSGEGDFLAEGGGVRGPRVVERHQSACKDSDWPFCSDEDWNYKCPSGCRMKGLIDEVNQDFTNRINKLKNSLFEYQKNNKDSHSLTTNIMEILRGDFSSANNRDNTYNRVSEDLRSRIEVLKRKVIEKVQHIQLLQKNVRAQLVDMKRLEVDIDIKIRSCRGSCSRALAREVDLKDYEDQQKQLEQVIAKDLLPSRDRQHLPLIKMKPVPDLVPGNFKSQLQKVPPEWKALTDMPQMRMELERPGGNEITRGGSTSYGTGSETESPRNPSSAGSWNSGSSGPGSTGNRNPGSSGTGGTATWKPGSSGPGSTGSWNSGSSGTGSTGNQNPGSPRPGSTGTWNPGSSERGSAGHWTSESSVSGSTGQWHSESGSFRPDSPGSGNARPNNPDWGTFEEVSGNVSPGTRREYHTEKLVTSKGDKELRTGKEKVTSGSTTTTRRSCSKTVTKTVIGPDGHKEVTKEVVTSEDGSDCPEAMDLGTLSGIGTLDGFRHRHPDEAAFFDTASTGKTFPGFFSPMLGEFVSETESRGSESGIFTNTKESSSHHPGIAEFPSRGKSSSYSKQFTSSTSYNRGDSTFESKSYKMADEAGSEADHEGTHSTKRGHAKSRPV
T1 sequence (P02675 31-491): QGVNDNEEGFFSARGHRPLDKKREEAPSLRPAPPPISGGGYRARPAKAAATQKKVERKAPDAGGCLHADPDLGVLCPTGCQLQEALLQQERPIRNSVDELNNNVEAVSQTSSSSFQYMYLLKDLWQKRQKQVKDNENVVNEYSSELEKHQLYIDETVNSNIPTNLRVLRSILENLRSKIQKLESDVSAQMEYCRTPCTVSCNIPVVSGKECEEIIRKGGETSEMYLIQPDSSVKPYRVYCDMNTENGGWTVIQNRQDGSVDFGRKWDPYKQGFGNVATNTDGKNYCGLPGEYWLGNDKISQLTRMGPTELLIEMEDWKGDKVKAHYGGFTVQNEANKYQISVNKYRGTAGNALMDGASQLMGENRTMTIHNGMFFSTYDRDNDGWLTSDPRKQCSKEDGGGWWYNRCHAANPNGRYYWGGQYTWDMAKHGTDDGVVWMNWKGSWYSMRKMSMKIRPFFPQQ
T1 sequence (P02679 27-433 limits assumed): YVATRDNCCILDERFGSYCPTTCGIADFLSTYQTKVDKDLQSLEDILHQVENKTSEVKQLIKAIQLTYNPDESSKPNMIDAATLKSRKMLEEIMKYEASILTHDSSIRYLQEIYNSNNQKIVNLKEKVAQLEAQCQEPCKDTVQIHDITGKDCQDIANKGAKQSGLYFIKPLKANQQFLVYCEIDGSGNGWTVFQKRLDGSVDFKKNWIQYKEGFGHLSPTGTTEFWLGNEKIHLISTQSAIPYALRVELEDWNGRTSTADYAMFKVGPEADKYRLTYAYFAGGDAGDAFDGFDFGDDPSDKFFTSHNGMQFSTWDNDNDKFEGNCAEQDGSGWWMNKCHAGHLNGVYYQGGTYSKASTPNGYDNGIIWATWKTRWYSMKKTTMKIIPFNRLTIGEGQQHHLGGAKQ
Description: Fibrinogen clotting assay with coagulation analyzer (Clauss method), tissue glue fibrinogen. To be noted: for gelation time (average clotting time): 4.58 mM additive in PBS, fixed 1:20 dilution of fibrinogen (Evicel); for clot time: dye 0.1% w/v; for Effect on Clotting Time: screen, multiple concentrations up to 4.58 mM. The class given is biochemical.

The mark [1] stands for this setting: 0.01% (w/v) dye, 1:20 dilution of fibrinogen, n=10.
The mark [2] stands for this setting: 0.05% (w/v) dye, 1:20 dilution of fibrinogen, n=10.
Where [3] appears, read: 0.10% (w/v) dye, 1:20 dilution of fibrinogen, n=10.

On to `Cc1cc(-c2ccc(/N=N/c3ccc4c(S(=O)(=O)O)cc(S(=O)(=O)O)c(N)c4c3O)c(C)c2)ccc1/N=N/c1ccc2c(S(=O)(=O)O)cc(S(=O)(=O)O)c(N)c2c1O` [EB, Evans Blue], for which the “Effect on Clotting Time” value is “Increase”. For the setting “n=10”, the “gelation time (average clotting time)” value was greater than 70 s. Moreover, the clotting time under setting [1] was found to be 19.4 ± 0.7 s. For the same molecule, the clotting time under setting [2] was found to be 34.8 ± 4.7 s. Further, the clotting time under setting [3] came out at 43.6 ± 2.5 s. The clotting time (0.2-0.4% dye, out of range of detection of the coagulation analyzer) was greater than 70 s. The clot time (fibrinogen 10.0 mg/mL) was 50.9 ± 4.9 s. This molecule showed a clot time (fibrinogen 10.9 mg/mL) of 39.5 ± 3.3 s. The molecule also came in with a clot time (fibrinogen 12.0 mg/mL) of 31.7 ± 1.8 s. For the setting “fibrinogen 13.3 mg/mL”, this molecule came in with a clot time of 25.7 ± 1.0 s. For the setting “fibrinogen 17.1 mg/mL”, this molecule displayed a clot time of 14.8 ± 0.4 s. Moreover, the clot time (fibrinogen 24.0 mg/mL) is 8.9 ± 2.3 s.
In the case of `Cc1cc(-c2ccc(/N=N/c3c(S(=O)(=O)O)cc4cc(S(=O)(=O)O)cc(N)c4c3O)c(C)c2)ccc1/N=N/c1c(S(=O)(=O)O)cc2cc(S(=O)(=O)O)cc(N)c2c1O` [TB, Trypan Blue], the “Effect on Clotting Time” value was “Increase”. Also, where the note is “n=10”, the “gelation time (average clotting time)” value came out at 46.3 ± 3.2 s. The molecule further showed a clotting time under setting [1] of 17.6 ± 0.3 s. This molecule returned a clotting time under setting [2] of 18.1 ± 1.4 s. Under setting [3], this molecule gave a clotting time of 24.4 ± 2.3 s. Also, under “0.2% (w/v) dye, 1:20 dilution of fibrinogen, n=10”, the clotting time was 26.2 ± 4.2 s. For the setting “0.3% (w/v) dye, 1:20 dilution of fibrinogen, n=10”, this molecule yielded a clotting time of 25.2 ± 2.9 s. In addition, the clotting time (0.4% (w/v) dye, 1:20 dilution of fibrinogen, n=10) was determined as 29.8 ± 1.2 s. Besides, under “fibrinogen 10.0 mg/mL”, the clot time came to 15.7 ± 3.1 s. In addition, the clot time (fibrinogen 10.9 mg/mL) came to 16.3 ± 0.4 s. This molecule also showed a clot time (fibrinogen 12.0 mg/mL) of 11.6 ± 3.7 s. Also, for the setting “fibrinogen 13.3 mg/mL”, the clot time came out at 18.1 ± 0.4 s. Moreover, where the note is “fibrinogen 17.1 mg/mL”, the clot time stood at 7.4 ± 0.1 s. The molecule further gave a clot time (fibrinogen 24.0 mg/mL) of 5.6 ± 0.1 s.
